# Patent US11173162B2, “Bicyclic heterocycles as FGFR4 inhibitors” (Incyte Corporation, priority 2015, dated 2021)
# Tested on: FGFR3 enzyme
# Test: FGFR Enzymatic Assay (FRET peptide phosphorylation), FGFR3
# Format: biochemical
# Settings: IC50 ratio showing FGFR3 selectivity; Table 2A, pre-incubated for 4 hours
# Method: The inhibitor potency of the exemplified compounds was measured in an enzyme assay that measures peptide phosphorylation using FRET measurements to detect product formation. Inhibitors were serially diluted in DMSO and a volume of 0.5 μL was transferred to the wells of a 384-well plate.
# GraphPad prism3 was used to analyze the data.
SMILES,FGFR1/FGFR3,FGFR4/FGFR3
"COc1cc(OC)c(F)c(N2Cc3cnc(-c4ccccc4)cc3C3(CC3)C2=O)c1F [Example 17, 2′-(2,6-difluoro-3,5-dimethoxyphenyl)-6′-phenyl-1′H-spiro[cyclopropane-1,4′-[2,7]naphthyridin]-3′(2′H)-one]",>10,–
"CNC(=O)c1ccc(-c2cc3c(cn2)CN(c2c(F)c(OC)cc(OC)c2F)C(=O)C32CC2)cn1 [Example 18, 5-(2′-(2,6-difluoro-3,5-dimethoxyphenyl)-3′-oxo-2′,3′-dihydro-1′H-spiro[cyclopropane-1,4′-[2,7]naphthyridine]-6′-yl)-N-methylpicolinamide]",>5,–
"CNC(=O)c1ccc(-c2cc3c(cn2)CN(c2c(F)c(OC)cc(OC)c2F)C(=O)C32CC2)cc1 [Example 19, 4-(2′-(2,6-difluoro-3,5-dimethoxyphenyl)-3′-oxo-2′,3′-dihydro-1′H-spiro[cyclopropane-1,4′-[2,7]naphthyridine]-6′-yl)-N-methylbenzamide]",>5,–
"COc1cc(OC)c(F)c(N2Cc3cnc(-c4ccc(C#N)nc4)cc3C3(CC3)C2=O)c1F [Example 20, 5-(2′-(2,6-difluoro-3,5-dimethoxyphenyl)-3′-oxo-2′,3′-dihydro-1′H-spiro[cyclopropane-1,4′-[2,7]naphthyridine]-6′-yl)picolinonitrile]",>5,–
"COc1cc(OC)c(F)c(N2Cc3cnc(-c4cn(C)nc4C)cc3C3(CC3)C2=O)c1F [Example 21, 2′-(2,6-difluoro-3,5-dimethoxyphenyl)-6′-(1,3-dimethyl-1H-pyrazol-4-yl)-1′,2′-dihydro-3′H-spiro[cyclopropane-1,4′-[2,7]naphthyridin]-3′-one]",>5,–
"CCN1C(=O)N(c2c(F)c(OC)cc(OC)c2F)Cc2cnc(-c3ccccc3)cc21 [Example 22, 3-(2,6-difluoro-3,5-dimethoxyphenyl)-1-ethyl-7-phenyl-3,4-dihydropyrido[4,3-d]pyrimidin-2(1H)-one]",>5,–
"CCN1C(=O)N(c2c(F)c(OC)cc(OC)c2F)Cc2cnc(-c3cccnc3)cc21 [Example 23, 3-(2,6-difluoro-3,5-dimethoxyphenyl)-1-ethyl-7-(pyridin-3-yl)-3,4-dihydropyrido[4,3-d]pyrimidin-2(1H)-one]",>5,–
"CCN1C(=O)N(c2c(F)c(OC)cc(OC)c2F)Cc2cnc(-c3ccc(CN4CC[C@H](C#N)C4)cc3)cc21 [Example 25, (S)-1-(4-(3-(2,6-difluoro-3,5-dimethoxyphenyl)-1-ethyl-2-oxo-1,2,3,4-tetrahydropyrido[4,3-d]pyrimidin-7-yl)benzyl)pyrrolidine-3-carbonitrile]",>5,>5
"CCN1C(=O)N(c2c(F)c(OC)cc(OC)c2F)Cc2cnc(-c3ccc(C(C)(C)C#N)nc3)cc21 [Example 26, 2-(5-(3-(2,6-difluoro-3,5-dimethoxyphenyl)-1-ethyl-2-oxo-1,2,3,4-tetrahydropyrido[4,3-d]pyrimidin-7-yl)pyridin-2-yl)-2-methylpropanenitrile]",>5,>5
"CCN1C(=O)N(c2c(F)c(OC)cc(OC)c2F)Cc2cnc(-c3ccc(C4(C#N)CCC4)nc3)cc21 [Example 27, 1-(5-(3-(2,6-difluoro-3,5-dimethoxyphenyl)-1-ethyl-2-oxo-1,2,3,4-tetrahydropyrido[4,3-d]pyrimidin-7-yl)pyridin-2-yl)cyclobutanecarbonitrile]",>10,>10
"COc1cc(OC)c(F)c(N2Cc3cnc(-c4cn(C)nc4C)cc3N(CC3CC3)C2=O)c1F [Example 29, 1-(cyclopropylmethyl)-3-(2,6-difluoro-3,5-dimethoxyphenyl)-7-(1,3-dimethyl-1H-pyrazol-4-yl)-3,4-dihydropyrido[4,3-d]pyrimidin-2(1H)-one]",>1,>5
"CCCN1C(=O)N(c2c(F)c(OC)cc(OC)c2F)Cc2cnc(-c3cn(C)nc3C)cc21 [Example 30, 3-(2,6-difluoro-3,5-dimethoxyphenyl)-7-(1,3-dimethyl-1H-pyrazol-4-yl)-1-propyl-3,4-dihydropyrido[4,3-d]pyrimidin-2(1H)-one]",>1,>5
"COc1cc(OC)c(F)c(N2Cc3cnc(-c4cn(C)nc4C)cc3N(Cc3cc(C)on3)C2=O)c1F [Example 31, 3-(2,6-difluoro-3,5-dimethoxyphenyl)-7-(1,3-dimethyl-1H-pyrazol-4-yl)-1-((5-methylisoxazol-3-yl)methyl)-3,4-dihydropyrido[4,3-d]pyrimidin-2(1H)-one]",>5,>10
"COc1cc(OC)c(F)c(N2Cc3cnc(-c4cn(C)nc4C)cc3N(C3CCCC3)C2=O)c1F [Example 32, 1-cyclopentyl-3-(2,6-difluoro-3,5-dimethoxyphenyl)-7-(1,3-dimethyl-1H-pyrazol-4-yl)-3,4-dihydropyrido[4,3-d]pyrimidin-2(1H)-one]",>1,>5
"COc1cc(OC)c(F)c(N2Cc3cnc(-c4cn(C)nc4C)cc3N(C3CCOC3)C2=O)c1F (centres unmarked) [Example 33, 3-(2,6-difluoro-3,5-dimethoxyphenyl)-7-(1,3-dimethyl-1H-pyrazol-4-yl)-1-(tetrahydrofuran-3-yl)-3,4-dihydropyrido[4,3-d]pyrimidin-2(1H)-one]",>5,>5
"COc1cc(OC)c(F)c(N2Cc3cnc(-c4cn(C)nc4C)cc3N(Cc3ccc(F)cc3)C2=O)c1F [Example 34, 3-(2,6-difluoro-3,5-dimethoxyphenyl)-7-(1,3-dimethyl-1H-pyrazol-4-yl)-1-(4-fluorobenzyl)-3,4-dihydropyrido[4,3-d]pyrimidin-2(1H)-one]",>5,>10
"COc1cc(OC)c(F)c(N2Cc3cnc(-c4cn(C)nc4C)cc3N(C3CCN(C(C)=O)CC3)C2=O)c1F [Example 43, 1-(1-acetylpiperidin-4-yl)-3-(2,6-difluoro-3,5-dimethoxyphenyl)-7-(1,3-dimethyl-1H-pyrazol-4-yl)-3,4-dihydropyrido[4,3-d]pyrimidin-2(1H)-one]",>10,>5

# Further lines, results first:
FGFR1/FGFR3,FGFR4/FGFR3,SMILES
>5,>10,"COc1cc(OC)c(F)c(N2Cc3cnc(-c4cn(C)nc4C)cc3N(Cc3cc(C)no3)C2=O)c1F [Example 35, 3-(2,6-difluoro-3,5-dimethoxyphenyl)-7-(1,3-dimethyl-1H-pyrazol-4-yl)-1-((3-methylisoxazol-5-yl)methyl)-3,4-dihydropyrido[4,3-d]pyrimidin-2(1H)-one]"
>1,>10,"COc1cc(OC)c(F)c(N2Cc3cnc(-c4cn(C)nc4C)cc3N(CC3CCOCC3)C2=O)c1F [Example 37, 3-(2,6-difluoro-3,5-dimethoxyphenyl)-7-(1,3-dimethyl-1H-pyrazol-4-yl)-1-((tetrahydro-2H-pyran-4-yl)methyl)-3,4-dihydropyrido[4,3-d]pyrimidin-2(1H)-one]"
>5,>5,"COc1cc(OC)c(F)c(N2Cc3cnc(-c4cn(C)nc4C)cc3N(Cc3ccc4c(c3)OCCO4)C2=O)c1F [Example 38, 3-(2,6-difluoro-3,5-dimethoxyphenyl)-1-((2,3-dihydrobenzo[b][1,4]dioxin-6-yl)methyl)-7-(1,3-dimethyl-1H-pyrazol-4-yl)-3,4-dihydropyrido[4,3-d]pyrimidin-2(1H)-one]"
>10,>10,"CCn1cc(CN2C(=O)N(c3c(F)c(OC)cc(OC)c3F)Cc3cnc(-c4cn(C)nc4C)cc32)cn1 [Example 39, 3-(2,6-difluoro-3,5-dimethoxyphenyl)-7-(1,3-dimethyl-1H-pyrazol-4-yl)-1-((1-ethyl-1H-pyrazol-4-yl)methyl)-3,4-dihydropyrido[4,3-d]pyrimidin-2(1H)-one]"
>10,>10,"COc1cc(OC)c(F)c(N2Cc3cnc(-c4cn(C)nc4C)cc3N(c3ccc(F)cc3)C2=O)c1F [Example 40, 3-(2,6-difluoro-3,5-dimethoxyphenyl)-7-(1,3-dimethyl-1H-pyrazol-4-yl)-1-(4-fluorophenyl)-3,4-dihydropyrido[4,3-d]pyrimidin-2(1H)-one]"
>1,>5,"COc1cc(OC)c(F)c(N2Cc3cnc(-c4cn(C)nc4C)cc3N(c3ccc4ncsc4c3)C2=O)c1F [Example 41, 1-(1,3-benzothiazol-6-yl)-3-(2,6-difluoro-3,5-dimethoxyphenyl)-7-(1,3-dimethyl-1H-pyrazol-4-yl)-3,4-dihydropyrido[4,3-d]pyrimidin-2(1H)-one]"
>10,>10,"COc1cc(OC)c(F)c(N2Cc3cnc(-c4cn(C)nc4C)cc3N(c3ccc(C#N)cc3)C2=O)c1F [Example 44, 4-(3-(2,6-difluoro-3,5-dimethoxyphenyl)-7-(1,3-dimethyl-1H-pyrazol-4-yl)-2-oxo-3,4-dihydropyrido[4,3-d]pyrimidin-1 (2H)-yl)benzonitrile]"
>10,>10,"COc1cc(OC)c(F)c(N2Cc3cnc(-c4cn(C)nc4C)cc3N(c3ccncn3)C2=O)c1F [Example 45, 3-(2,6-difluoro-3,5-dimethoxyphenyl)-7-(1,3-dimethyl-1H-pyrazol-4-yl)-1-pyrimidin-4-yl-3,4-dihydropyrido[4,3-d]pyrimidin-2(1H)-one]"
>10,>10,"COc1cc(OC)c(F)c(N2Cc3cnc(-c4cn(C)nc4C)cc3N(Cc3nnc(C)o3)C2=O)c1F [Example 46, 3-(2,6-difluoro-3,5-dimethoxyphenyl)-7-(1,3-dimethyl-1H-pyrazol-4-yl)-1-[(5-methyl-1,3,4-oxadiazol-2-yl)methyl]-3,4-dihydropyrido[4,3-d]pyrimidin-2(1H)-one]"
>5,>1,"CCN1C(=O)N(c2c(F)c(OC)cc(OC)c2F)Cc2cnc(-c3cn(CCN4CCOCC4)nc3C)cc21 [Example 49, 3-(2,6-difluoro-3,5-dimethoxyphenyl)-1-ethyl-7-(3-methyl-1-(2-morpholinoethyl)-1H-pyrazol-4-yl)-3,4-dihydropyrido[4,3-d]pyrimidin-2(1H)-one]"
